Reference: patent US20260297081A1, “COMPOUNDS AND METHODS OF TREATING CANCERS” (Cullgen Inc., priority 2023, published 2026)

Test system: MCF7 cells
Assay: Anti-proliferation (viability) of MCF7 cells (Table 7, FIG. 2B)
Assay type: cell-based
Settings: Homo sapiens, MCF7, MCF7 cells, 3-6 days, 10-point serial dilution; read-out: GI IC50 in MCF-7

Compound | IC50 [nM]
CNc1ccc(C(=O)Nc2ccc(N(C)C)nn2)c(NC2CC3(C2)CN(C(=O)CCN2CCN(c4ccc(Nc5ncc6c(C)c(C(C)=O)c(=O)n(C7CCCC7)c6n5)nc4)CC2(C)C)C3)n1 [CPD-267, 2-((2-(3-(4-(6-((6-acetyl-8-cyclopentyl-5-methyl-7-oxo-7,8-dihydropyrido[2,3-d]pyrimidin-2-yl)amino)pyridin-3-yl)-2,2-dimethylpiperazin-1-yl)propanoyl)-2-azaspiro[3.3]heptan-6-yl)amino)-N-(6-(dimethylamino)pyridazin-3-yl)-6-(methylamino)nicotinamide] | < 50
CC(=O)c1c(C)c2cnc(Nc3ccc(N4CCN(CC(=O)NC5CC6(C5)CC(Nc5nc(OC(C)C)ccc5C(=O)Nc5cn(C)c(C7CC7)n5)C6)CC4)cn3)nc2n(C2CCCC2)c1=O (centres unmarked) [CPD-292, 2-((6-(2-(4-(6-((6-acetyl-8-cyclopentyl-5-methyl-7-oxo-7,8-dihydropyrido[2,3-d]pyrimidin-2-yl)amino)pyridin-3-yl)piperazin-1-yl)acetamido)spiro[3.3]heptan-2-yl)amino)-N-(2-cyclopropyl-1-methyl-1H-imidazol-4-yl)-6-isopropoxynicotinamide] | > 100
CNc1ccc(C(=O)Nc2ccc(N(C)C)nn2)c(NC2CCN(C(=O)CNC3CCN(c4ccc(Nc5ncc6c(C)c(C(C)=O)c(=O)n(C7CCCC7)c6n5)nc4)CC3)CC2)n1 [CPD-299, 2-((1-((1-(6-((6-acetyl-8-cyclopentyl-5-methyl-7-oxo-7,8-dihydropyrido[2,3-d]pyrimidin-2-yl)amino)pyridin-3-yl)piperidin-4-yl)glycyl)piperidin-4-yl)amino)-N-(6-(dimethylamino)pyridazin-3-yl)-6-(methylamino)nicotinamide] | < 50
CNc1ccc(C(=O)Nc2cn(C)c(C3CC3)n2)c(NC2CC3(C2)CN(C(=O)C2CC24CCN(c2ccc(Nc5ncc6c(C)c(C(C)=O)c(=O)n(C7CCCC7)c6n5)nc2)CC4)C3)n1 (centres unmarked) [CPD-320, 2-((2-(6-(6-((6-acetyl-8-cyclopentyl-5-methyl-7-oxo-7,8-dihydropyrido[2,3-d]pyrimidin-2-yl)amino)pyridin-3-yl)-6-azaspiro[2.5]octane-1-carbonyl)-2-azaspiro[3.3]heptan-6-yl)amino)-N-(2-cyclopropyl-1-methyl-1H-imidazol-4-yl)-6-(methylamino)nicotinamide] | > 100
CNc1ccc(C(=O)Nc2ccc(N(C)C)nn2)c(NC2CC3(C2)CN(C(=O)C2CC4(CCN(c5ccc(Nc6ncc7c(C)c(C(C)=O)c(=O)n(C8CCCC8)c7n6)nc5)CC4)C2)C3)n1 (centres unmarked) [CPD-325, 2-((2-(7-(6-((6-acetyl-8-cyclopentyl-5-methyl-7-oxo-7,8-dihydropyrido[2,3-d]pyrimidin-2-yl)amino)pyridin-3-yl)-7-azaspiro[3.5]nonane-2-carbonyl)-2-azaspiro[3.3]heptan-6-yl)amino)-N-(6-(dimethylamino)pyridazin-3-yl)-6-(methylamino)nicotinamide] | > 100
CC(=O)c1c(C)c2cnc(Nc3ccc(N4CCC(N5CCC(C(=O)NC6CC7(C6)CC(Nc6nc(NC(C)C)ccc6C(=O)Nc6ccc(N(C)C)nn6)C7)C5)CC4)cn3)nc2n(C2CCCC2)c1=O (centres unmarked) [CPD-397, 2-((6-(1-(1-(6-((6-acetyl-8-cyclopentyl-5-methyl-7-oxo-7,8-dihydropyrido[2,3-d]pyrimidin-2-yl)amino)pyridin-3-yl)piperidin-4-yl)pyrrolidine-3-carboxamido)spiro[3.3]heptan-2-yl)amino)-N-(6-(dimethylamino)pyridazin-3-yl)-6-(isopropylamino)nicotinamide] | < 50
CNc1ccc(C(=O)Nc2ccc(N(C)C)nn2)c(NC2CC(C(=O)N3CC(N4CCN(c5ccc(Nc6ncc7c(C)c(C(C)=O)c(=O)n(C8CCCC8)c7n6)nc5)CC4)C3)C2)n1 (centres unmarked) [CPD-332, 2-((3-(3-(4-(6-((6-acetyl-8-cyclopentyl-5-methyl-7-oxo-7,8-dihydropyrido[2,3-d]pyrimidin-2-yl)amino)pyridin-3-yl)piperazin-1-yl)azetidine-1-carbonyl)cyclobutyl)amino)-N-(6-(dimethylamino)pyridazin-3-yl)-6-(methylamino)nicotinamide] | > 100
CNc1ccc(C(=O)Nc2ccc(N(C)C)nn2)c(NC2CC3(C2)CC(C(=O)N2CC(C4CCN(c5ccc(Nc6ncc7c(C)c(C(C)=O)c(=O)n(C8CCCC8)c7n6)nc5)CC4)C2)C3)n1 (centres unmarked) [CPD-376, 2-((6-(3-(1-(6-((6-acetyl-8-cyclopentyl-5-methyl-7-oxo-7,8-dihydropyrido[2,3-d]pyrimidin-2-yl)amino)pyridin-3-yl)piperidin-4-yl)azetidine-1-carbonyl)spiro[3.3]heptan-2-yl)amino)-N-(6-(dimethylamino)pyridazin-3-yl)-6-(methylamino)nicotinamide] | > 100

More lines, now with the values ahead:

IC50 [nM] | Compound
> 100 | CC(=O)c1c(C)c2cnc(Nc3ccc(N4CCN(CC(=O)NC5CC6(C5)CC(Nc5nc(CC(C)C)ccc5C(=O)Nc5cn(C)c(C7CC7)n5)C6)CC4)cn3)nc2n(C2CCCC2)c1=O (centres unmarked) [CPD-318, 2-((6-(2-(4-(6-((6-acetyl-8-cyclopentyl-5-methyl-7-oxo-7,8-dihydropyrido[2,3-d]pyrimidin-2-yl)amino)pyridin-3-yl)piperazin-1-yl)acetamido)spiro[3.3]heptan-2-yl)amino)-N-(2-cyclopropyl-1-methyl-1H-imidazol-4-yl)-6-isobutylnicotinamide]
> 100 | CCn1nc(NC(=O)c2ccc(NC)nc2NC2CC3(CC(NC(=O)CN4CCN(c5ccc(Nc6ncc7c(C)c(C(C)=O)c(=O)n(C8CCCC8)c7n6)nc5)CC4)C3)C2)cc1C (centres unmarked) [CPD-312, 2-((6-(2-(4-(6-((6-acetyl-8-cyclopentyl-5-methyl-7-oxo-7,8-dihydropyrido[2,3-d]pyrimidin-2-yl)amino)pyridin-3-yl)piperazin-1-yl)acetamido)spiro[3.3]heptan-2-yl)amino)-N-(1-ethyl-5-methyl-1H-pyrazol-3-yl)-6-(methylamino)nicotinamide]
> 100 | CCCc1nc(NC(=O)c2ccc(NC)nc2NC2CC3(CC(NC(=O)CN4CCN(c5ccc(Nc6ncc7c(C)c(C(C)=O)c(=O)n(C8CCCC8)c7n6)nc5)CC4)C3)C2)cn1C (centres unmarked) [CPD-309, 2-((6-(2-(4-(6-((6-acetyl-8-cyclopentyl-5-methyl-7-oxo-7,8-dihydropyrido[2,3-d]pyrimidin-2-yl)amino)pyridin-3-yl)piperazin-1-yl)acetamido)spiro[3.3]heptan-2-yl)amino)-N-(1-methyl-2-propyl-1H-imidazol-4-yl)-6-(methylamino)nicotinamide]
> 100 | CC(=O)c1c(C)c2cnc(Nc3ccc(N4CCN(CC(=O)NCC5CC(Nc6ccc(C(F)(F)F)cc6C(=O)Nc6cc(C)n(C)n6)C5)CC4)cn3)nc2n(C2CCCC2)c1=O (centres unmarked) [CPD-262, 2-((3-((2-(4-(6-((6-acetyl-8-cyclopentyl-5-methyl-7-oxo-7,8-dihydropyrido[2,3-d]pyrimidin-2-yl)amino)pyridin-3-yl)piperazin-1-yl)acetamido)methyl)cyclobutyl)amino)-N-(1,5-dimethyl-1H-pyrazol-3-yl)-5-(trifluoromethyl)benzamide]
< 50 | CC(=O)c1c(C)c2cnc(Nc3ccc(N4CCN(CCC(=O)N5CC(Nc6nc(NC(C)C)ccc6C(=O)Nc6ccc(N(C)C)nn6)C5)CC4)cn3)nc2n(C2CCCC2)c1=O [CPD-303, 2-((1-(3-(4-(6-((6-acetyl-8-cyclopentyl-5-methyl-7-oxo-7,8-dihydropyrido[2,3-d]pyrimidin-2-yl)amino)pyridin-3-yl)piperazin-1-yl)propanoyl)azetidin-3-yl)amino)-N-(6-(dimethylamino)pyridazin-3-yl)-6-(isopropylamino)nicotinamide]
> 100 | [2H]C([2H])([2H])Nc1ccc(C(=O)Nc2ccc(N(C)C)nn2)c(NC2CC3(C2)CC(C(=O)N2CCC4(CCN(c5ccc(Nc6ncc7c(C)c(C(C)=O)c(=O)n(C8CCCC8)c7n6)nc5)CC4)C2)C3)n1 (centres unmarked) [CPD-380, 2-((6-(8-(6-((6-acetyl-8-cyclopentyl-5-methyl-7-oxo-7,8-dihydropyrido[2,3-d]pyrimidin-2-yl)amino)pyridin-3-yl)-2,8-diazaspiro[4.5]decane-2-carbonyl)spiro[3.3]heptan-2-yl)amnion)-N-(6-(dimethylamino)pyridazin-3-yl)-6-((methyl-d3)amnion)nicotinamide]
50 to 100 | CC(=O)c1c(C)c2cnc(Nc3ccc(N4CCN(C5CCN(C(=O)[C@H]6CC[C@@H](Nc7nc(NC(C)C)ccc7C(=O)Nc7ccc(N(C)C)nn7)C6)C5)CC4)cn3)nc2n(C2CCCC2)c1=O (stereo partly drawn) [CPD-403, 2-(((1R,3S)-3-(3-(4-(6-((6-acetyl-8-cyclopentyl-5-methyl-7-oxo-7,8-dihydropyrido[2,3-d]pyrimidin-2-yl)amino)pyridin-3-yl)piperazin-1-yl)pyrrolidine-1-carbonyl)cyclopentyl)amino)-N-(6-(dimethylamino)pyridazin-3-yl)-6-(isopropylamino)nicotinamide]
< 50 | CC(=O)c1c(C)c2cnc(Nc3ccc(N4CCN(C(CC(=O)N5CC6(CC(Nc7nc(NC(C)C)ccc7C(=O)Nc7cc(C)n(C)n7)C6)C5)C(F)(F)F)CC4)cn3)nc2n(C2CCCC2)c1=O (centres unmarked) [CPD-433, 2-((2-(3-(4-(6-((6-acetyl-8-cyclopentyl-5-methyl-7-oxo-7,8-dihydropyrido[2,3-d]pyrimidin-2-yl)amino)pyridin-3-yl)piperazin-1-yl)-4,4,4-trifluorobutanoyl)-2-azaspiro[3.3]heptan-6-yl)amino)-N-(1,5-dimethyl-1H-pyrazol-3-yl)-6-(isopropylamino)nicotinamide]
> 100 | CC(=O)c1c(C)c2cnc(Nc3ccc(N4CCN(CC(=O)NC5CC6(C5)CC(Nc5cc(F)ccc5C(=O)Nc5cc(C)on5)C6)CC4)cn3)nc2n(C2CCCC2)c1=O (centres unmarked) [CPD-260, 2-((6-(2-(4-(6-((6-acetyl-8-cyclopentyl-5-methyl-7-oxo-7,8-dihydropyrido[2,3-d]pyrimidin-2-yl)amino)pyridin-3-yl)piperazin-1-yl)acetamido)spiro[3.3]heptan-2-yl)amino)-4-fluoro-N-(5-methylisoxazol-3-yl)benzamide]
